Laboratory results published in ChEMBL document CHEMBL1201862, “PubChem BioAssay data set” (2004).
Activity calls are given as the source filed them.

Key:
[1] = biological target: T1, Apoptotic protease-activating factor 1 (Homo sapiens, UniProt O14727); assay: SAR analysis of small molecule Activators of Apaf-1 in a Fluorescent assay.; format: functional; details: read-out: EC50_Mean;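 note: caspase-3 cleavage of fluorogenic Rh110 DEVD substrate downstream of apoptosome activation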
T1 sequence (O14727 whole entry): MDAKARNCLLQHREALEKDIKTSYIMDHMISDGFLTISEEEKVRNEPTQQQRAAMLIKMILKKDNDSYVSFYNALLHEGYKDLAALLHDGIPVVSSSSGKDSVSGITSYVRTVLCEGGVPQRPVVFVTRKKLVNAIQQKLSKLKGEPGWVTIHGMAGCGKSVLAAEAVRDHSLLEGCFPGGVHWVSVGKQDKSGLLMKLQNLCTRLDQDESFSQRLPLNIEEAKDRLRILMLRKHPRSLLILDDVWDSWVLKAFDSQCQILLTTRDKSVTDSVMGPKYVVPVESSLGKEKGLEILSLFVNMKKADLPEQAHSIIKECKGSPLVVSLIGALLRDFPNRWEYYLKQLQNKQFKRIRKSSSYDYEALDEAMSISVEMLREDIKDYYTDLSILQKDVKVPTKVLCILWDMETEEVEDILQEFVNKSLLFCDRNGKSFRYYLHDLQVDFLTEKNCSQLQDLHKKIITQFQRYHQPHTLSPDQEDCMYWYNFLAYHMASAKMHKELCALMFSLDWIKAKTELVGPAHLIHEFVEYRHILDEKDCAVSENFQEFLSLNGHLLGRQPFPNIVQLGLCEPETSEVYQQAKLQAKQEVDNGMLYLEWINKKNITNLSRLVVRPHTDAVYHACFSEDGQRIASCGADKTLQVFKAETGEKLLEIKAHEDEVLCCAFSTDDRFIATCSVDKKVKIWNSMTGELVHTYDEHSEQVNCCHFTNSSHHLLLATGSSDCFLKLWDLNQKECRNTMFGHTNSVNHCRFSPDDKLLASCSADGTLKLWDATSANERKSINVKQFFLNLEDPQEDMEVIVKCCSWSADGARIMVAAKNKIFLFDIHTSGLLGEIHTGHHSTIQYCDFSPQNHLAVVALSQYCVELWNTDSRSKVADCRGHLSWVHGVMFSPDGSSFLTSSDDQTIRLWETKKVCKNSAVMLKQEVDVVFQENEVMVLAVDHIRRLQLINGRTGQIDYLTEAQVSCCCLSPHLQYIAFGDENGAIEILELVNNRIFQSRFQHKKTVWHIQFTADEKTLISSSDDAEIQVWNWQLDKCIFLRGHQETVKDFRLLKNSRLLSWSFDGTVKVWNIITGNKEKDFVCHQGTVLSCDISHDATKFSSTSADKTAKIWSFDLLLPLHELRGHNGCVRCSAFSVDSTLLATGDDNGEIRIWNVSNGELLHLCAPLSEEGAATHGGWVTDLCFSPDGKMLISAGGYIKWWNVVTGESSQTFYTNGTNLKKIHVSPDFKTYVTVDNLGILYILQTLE

[2] = biological target: Latent membrane protein 1 (Human herpesvirus 4 (strain B95-8), UniProt P03230); assay: LMP1 TES1 pathway selectivity over dsRED control – imaging, HEK293T, dual-color eGFP/dsRED, cherry-picks, selectivity assay for LMP1 NF-kB inhibitor project, dose response (AID 588398); format: functional, cell-based
Orexin receptor type 2 [3] = biological target: T2, Orexin receptor type 2 (Homo sapiens, UniProt O43614); assay: Counterscreen assay for antagonists of the orexin 1 receptor (OX1R; HCRTR1): Homogeneous Time Resolved Fluorescence (HTRF)-based cell-based dose response assay for antagonists of the orexin 2 receptor (OX2R; HCRTR2), run by assay provider.; format: functional
T2 sequence (O43614 whole entry): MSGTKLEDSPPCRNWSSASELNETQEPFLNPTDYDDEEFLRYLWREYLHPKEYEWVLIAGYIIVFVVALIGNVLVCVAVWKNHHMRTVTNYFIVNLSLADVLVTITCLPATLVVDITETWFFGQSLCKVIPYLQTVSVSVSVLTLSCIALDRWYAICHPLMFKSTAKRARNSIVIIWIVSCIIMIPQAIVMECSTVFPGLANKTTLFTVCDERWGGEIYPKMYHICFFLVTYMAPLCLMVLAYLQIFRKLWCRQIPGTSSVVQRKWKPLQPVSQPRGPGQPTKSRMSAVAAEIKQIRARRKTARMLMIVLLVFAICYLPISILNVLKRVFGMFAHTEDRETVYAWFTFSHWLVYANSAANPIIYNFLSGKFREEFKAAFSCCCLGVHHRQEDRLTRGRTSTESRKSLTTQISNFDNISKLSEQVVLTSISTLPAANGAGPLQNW

[4] = biological target: T3, Orexin/Hypocretin receptor type 1 (Homo sapiens, UniProt O43613); assay: Fluorescence-based cell-based high throughput dose response assay for antagonists of the orexin 1 receptor (OX1R; HCRTR1). [Related pubchem assays (depositor defined):AID434989, AID435008, AID463079, AID485270, AID492963, AID492964, AID492965, AID493232, AID504717, AID504718]; format: functional
T3 sequence (O43613 whole entry): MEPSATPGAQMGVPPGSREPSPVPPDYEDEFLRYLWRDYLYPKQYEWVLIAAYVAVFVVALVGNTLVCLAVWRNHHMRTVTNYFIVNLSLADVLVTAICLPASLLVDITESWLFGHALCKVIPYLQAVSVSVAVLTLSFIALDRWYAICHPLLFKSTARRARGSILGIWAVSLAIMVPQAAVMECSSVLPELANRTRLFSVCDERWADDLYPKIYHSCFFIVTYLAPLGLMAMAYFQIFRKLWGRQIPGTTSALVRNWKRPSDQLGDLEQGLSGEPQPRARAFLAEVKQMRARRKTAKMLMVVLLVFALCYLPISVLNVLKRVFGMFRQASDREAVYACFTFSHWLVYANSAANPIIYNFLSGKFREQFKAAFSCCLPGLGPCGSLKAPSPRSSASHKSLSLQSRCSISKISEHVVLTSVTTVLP

[5] = biological target: T3, Orexin/Hypocretin receptor type 1; assay: Homogeneous Time Resolved Fluorescence (HTRF)-based cell-based high throughput dose response assay for antagonists of the orexin 1 receptor (OX1R; HCRTR1). [Related pubchem assays (depositor defined):AID434989, AID435008, AID463079, AID485270, AID492963, AID492964, AID492965, AID493232, AID504717, AID504718]; format: functional
CHO-K1 = assay: Counterscreen for antagonists of the orexin 1 receptor (OX1R; HCRTR1): Homogeneous time resolved fluorescence (HTRF)-based cell-based dose response assay to identify antagonists of the parental CHO-K1 cell line. [Related pubchem assays (depositor defined):AID434989, AID435008, AID463079, AID485270, AID492963, AID492964, AID492965, AID493232, AID504699, AID504701]; format: functional; details: Cricetulus griseus;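 note: potency for inhibition of ATP-stimulated IP1 production as antagonists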
Orexin receptor type 2 [6] = biological target: T2, Orexin receptor type 2; assay: Counterscreen assay for antagonists of the orexin 1 receptor (OX1R; HCRTR1): Fluorescence-based cell-based dose response assay for antagonists of the orexin 2 receptor (OX2R; HCRTR2), run by assay provider.; format: functional
[7] = Counterscreen for antagonists of the orexin 1 receptor (OX1R; HCRTR1): Fluorescence-based cell-based high throughput dose response assay to identify antagonists of the parental CHO cell line. [Related pubchem assays (depositor defined):AID434989, AID435008, AID463079, AID485270, AID492963, AID492964, AID492965, AID493232, AID504699, AID504701]; format: functional
HEK293 = assay: EBV LMP1 TES2 canonical NF-kB signalling blockers – cell-based, HEK293, luciferase, cherry-pick, dose response (AID 588343); format: functional; details: Homo sapiens
[8] = biological target: T4, Endoribonuclease toxin MazF (Escherichia coli K-12, UniProt P0AE70); assay: substrate-only fluorescence increase artefacts – biochemical, single-stranded RNase substrate, counter-screen for MazEF activator project, dose response (AID 588502); format: functional
T4 sequence (P0AE70 whole entry): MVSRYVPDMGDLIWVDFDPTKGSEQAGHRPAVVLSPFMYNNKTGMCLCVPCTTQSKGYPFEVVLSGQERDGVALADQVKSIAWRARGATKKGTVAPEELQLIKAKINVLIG

Beta Lactamase = Beta Lactamase (Pseudomonas aeruginosa, UniProt Q932Y6); assay: BLA reporter interference, concentration series – BLA reporter cells, FRET fluorescence, artefact control for TLR9-MyD88 binding inhibitor project, dose response (AID 588341); format: cell-based;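 note: cell based assay in CHO-K1 cells stably expressing beta-lactamase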
CHO = CHO cell viability loss, potency – luminescence, cytotoxicity control for TLR9-MyD88 binding inhibitor project, dose response (AID 588339); format: functional, cell-based, hamster; details: Cricetulus griseus;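 note: CHO cells stably coexpressing TLR9 and MyD88 fusions from primary screen; compound exposure lasted 48 hours before viability readout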
[9] = biological target: T4, Endoribonuclease toxin MazF; assay: activation of MazEF endoribonuclease cleavage – biochemical, fluorescence, single-stranded RNA substrate, uHTS hits, dose response (AID 588481); format: functional
[10] = biological target: T5, Neuropeptides B/W receptor type 1 (Homo sapiens, UniProt P48145); assay: human NPBW1 receptor blockade, IC50 – cell-based, fluorescence, dose response, set 5, late-stage follow-up (AID 588566); format: functional
T5 sequence (P48145 whole entry): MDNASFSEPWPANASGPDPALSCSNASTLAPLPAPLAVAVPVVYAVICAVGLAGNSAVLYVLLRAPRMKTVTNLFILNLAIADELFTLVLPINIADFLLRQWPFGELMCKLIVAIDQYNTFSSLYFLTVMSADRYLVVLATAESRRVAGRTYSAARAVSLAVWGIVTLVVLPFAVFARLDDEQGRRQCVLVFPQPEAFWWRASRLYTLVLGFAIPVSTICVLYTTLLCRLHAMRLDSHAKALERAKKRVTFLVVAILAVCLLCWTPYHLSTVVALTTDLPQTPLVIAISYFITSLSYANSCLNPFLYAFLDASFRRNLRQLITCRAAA

[11] = biological target: Melanin-concentrating hormone receptor 1 (Homo sapiens, UniProt Q99705); assay: Late-stage fluorescence-based counterscreen for antagonists of the G-protein coupled receptor 7 (GPR7): cell-based dose response assay to identify antagonists of the melanin-concentrating hormone receptor 1 (MCHR1) Set 5.; format: functional
[12] = blockers of CAL PDZ–TMR peptide complex – biochemical, fluorescence polarization, untagged CAL PDZ, cherry-pick, set 2, dose response (AID 602254); format: functional
[13] = biological target: Glycogen synthase kinase-3 beta (Homo sapiens, UniProt P49841); format: functional;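 note: value comes from a broad kinome profiling panel, with GSK3B as the panel member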
[14] = biological target: cAMP-dependent protein kinase catalytic subunit alpha (Homo sapiens, UniProt P17612); format: functional
[15] = biological target: Cell division cycle 7-related protein kinase (Homo sapiens, UniProt O00311); format: functional;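 note: value obtained from a kinome-wide kinase panel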
[16] = biological target: Serine/threonine-protein kinase pim-1 (Homo sapiens, UniProt P11309); format: functional
[17] = biological target: Interleukin-1 receptor-associated kinase 4 (Homo sapiens, UniProt Q9NWZ3); format: functional
[18] = biological target: Homeodomain-interacting protein kinase 2 (Homo sapiens, UniProt Q9H2X6); format: functional;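 note: measured within a kinome-wide kinase profiling panel, HIPK2 being one panel member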
[19] = biological target: Mitogen-activated protein kinase kinase kinase kinase 4 (Homo sapiens, UniProt O95819); format: functional
[20] = biological target: Mitochondrial peptide methionine sulfoxide reductase (Bos taurus, UniProt P54149); format: functional;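 note: absorbance read-out, biochemical high-throughput dose-response screen for MsrA inhibitors, confirmatory; recombinant bovine MsrA coupled to E. coli TrxB with NADPH and selenocystamine; potency is for inhibitors of MsrA activity on DMSO substrate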
[21] = biological target: Mitogen-activated protein kinase 13 (Homo sapiens, UniProt O15264); format: functional
[22] = biological target: Tyrosine-protein kinase SYK (Homo sapiens, UniProt P43405); format: functional
[23] = biological target: Proto-oncogene tyrosine-protein kinase Src (Homo sapiens, UniProt P12931); format: functional;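 note: SRC entry within a kinome-wide kinase profiling panel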
[24] = THP-1 cell cytotoxicity, cytotoxicity control, set 4 (AID 504911); format: functional; details: Mycobacterium tuberculosis

Latent membrane protein 1, sequence (P03230 whole entry): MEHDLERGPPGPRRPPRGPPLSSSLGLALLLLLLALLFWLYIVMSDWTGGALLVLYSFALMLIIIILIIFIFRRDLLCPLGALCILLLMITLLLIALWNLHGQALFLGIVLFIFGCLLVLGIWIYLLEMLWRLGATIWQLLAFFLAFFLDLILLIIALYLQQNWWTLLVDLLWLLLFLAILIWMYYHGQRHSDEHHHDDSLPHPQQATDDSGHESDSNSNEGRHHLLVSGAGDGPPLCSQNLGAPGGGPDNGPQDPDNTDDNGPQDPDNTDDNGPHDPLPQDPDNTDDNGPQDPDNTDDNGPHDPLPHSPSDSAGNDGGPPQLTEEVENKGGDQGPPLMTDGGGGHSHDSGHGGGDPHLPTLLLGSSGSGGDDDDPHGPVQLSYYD
Melanin-concentrating hormone receptor 1, sequence (Q99705 whole entry): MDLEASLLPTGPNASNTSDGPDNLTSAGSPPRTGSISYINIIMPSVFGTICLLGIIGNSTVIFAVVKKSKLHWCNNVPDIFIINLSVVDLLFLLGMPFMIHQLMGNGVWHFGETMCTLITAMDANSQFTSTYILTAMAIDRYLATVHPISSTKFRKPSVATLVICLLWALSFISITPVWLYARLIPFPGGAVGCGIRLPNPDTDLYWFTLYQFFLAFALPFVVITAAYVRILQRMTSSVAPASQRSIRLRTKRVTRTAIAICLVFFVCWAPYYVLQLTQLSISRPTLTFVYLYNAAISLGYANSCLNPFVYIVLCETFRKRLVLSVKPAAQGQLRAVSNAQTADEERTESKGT
Mitochondrial peptide methionine sulfoxide reductase, sequence (P54149 whole entry): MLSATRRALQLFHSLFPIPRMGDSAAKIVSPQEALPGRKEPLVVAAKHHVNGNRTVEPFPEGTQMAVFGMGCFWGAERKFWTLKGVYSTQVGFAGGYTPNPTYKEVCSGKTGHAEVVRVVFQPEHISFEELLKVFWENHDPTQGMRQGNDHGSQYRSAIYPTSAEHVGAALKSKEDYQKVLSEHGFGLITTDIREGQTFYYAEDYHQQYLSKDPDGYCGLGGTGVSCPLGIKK
Serine/threonine-protein kinase pim-1, sequence (P11309 whole entry): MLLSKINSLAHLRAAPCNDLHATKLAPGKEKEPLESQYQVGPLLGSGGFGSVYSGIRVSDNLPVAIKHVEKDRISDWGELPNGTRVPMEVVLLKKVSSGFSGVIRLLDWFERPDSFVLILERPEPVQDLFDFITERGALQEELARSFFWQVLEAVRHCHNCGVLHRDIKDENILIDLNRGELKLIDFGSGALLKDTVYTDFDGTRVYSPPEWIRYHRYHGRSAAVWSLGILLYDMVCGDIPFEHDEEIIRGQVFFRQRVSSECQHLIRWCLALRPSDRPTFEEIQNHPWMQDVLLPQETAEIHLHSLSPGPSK
Mitogen-activated protein kinase kinase kinase kinase 4, sequence (O95819 whole entry): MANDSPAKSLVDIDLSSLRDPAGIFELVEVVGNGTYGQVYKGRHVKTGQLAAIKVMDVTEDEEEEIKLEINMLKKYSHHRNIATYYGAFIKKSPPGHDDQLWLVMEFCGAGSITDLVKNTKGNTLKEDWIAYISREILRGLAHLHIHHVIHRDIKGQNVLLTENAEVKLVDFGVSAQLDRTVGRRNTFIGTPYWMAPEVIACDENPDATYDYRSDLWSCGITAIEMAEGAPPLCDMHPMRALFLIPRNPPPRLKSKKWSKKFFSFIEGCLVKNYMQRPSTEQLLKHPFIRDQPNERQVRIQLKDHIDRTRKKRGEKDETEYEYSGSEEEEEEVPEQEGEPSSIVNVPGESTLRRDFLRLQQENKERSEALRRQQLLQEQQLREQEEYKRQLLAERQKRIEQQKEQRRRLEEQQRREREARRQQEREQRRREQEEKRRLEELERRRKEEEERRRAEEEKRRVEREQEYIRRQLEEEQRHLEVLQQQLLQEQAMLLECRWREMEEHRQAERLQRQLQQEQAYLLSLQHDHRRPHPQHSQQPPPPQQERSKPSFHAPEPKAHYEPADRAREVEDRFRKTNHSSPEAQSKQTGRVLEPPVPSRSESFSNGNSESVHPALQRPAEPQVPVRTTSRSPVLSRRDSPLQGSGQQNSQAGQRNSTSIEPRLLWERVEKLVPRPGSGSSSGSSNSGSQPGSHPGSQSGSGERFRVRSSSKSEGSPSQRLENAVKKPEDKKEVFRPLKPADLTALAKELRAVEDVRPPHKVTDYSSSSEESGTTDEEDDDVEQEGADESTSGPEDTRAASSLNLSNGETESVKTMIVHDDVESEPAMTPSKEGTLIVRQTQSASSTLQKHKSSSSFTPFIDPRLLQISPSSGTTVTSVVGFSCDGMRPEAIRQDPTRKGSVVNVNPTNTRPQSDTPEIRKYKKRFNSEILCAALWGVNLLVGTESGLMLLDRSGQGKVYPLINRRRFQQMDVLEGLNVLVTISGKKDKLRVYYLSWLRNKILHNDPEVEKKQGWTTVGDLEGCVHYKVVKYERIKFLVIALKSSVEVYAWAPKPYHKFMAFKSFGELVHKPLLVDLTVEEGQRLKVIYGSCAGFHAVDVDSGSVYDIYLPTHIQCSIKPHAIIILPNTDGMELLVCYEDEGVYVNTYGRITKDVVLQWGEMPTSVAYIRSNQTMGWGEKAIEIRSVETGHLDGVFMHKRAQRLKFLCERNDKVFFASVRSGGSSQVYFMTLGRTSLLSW
Glycogen synthase kinase-3 beta, sequence (P49841 whole entry): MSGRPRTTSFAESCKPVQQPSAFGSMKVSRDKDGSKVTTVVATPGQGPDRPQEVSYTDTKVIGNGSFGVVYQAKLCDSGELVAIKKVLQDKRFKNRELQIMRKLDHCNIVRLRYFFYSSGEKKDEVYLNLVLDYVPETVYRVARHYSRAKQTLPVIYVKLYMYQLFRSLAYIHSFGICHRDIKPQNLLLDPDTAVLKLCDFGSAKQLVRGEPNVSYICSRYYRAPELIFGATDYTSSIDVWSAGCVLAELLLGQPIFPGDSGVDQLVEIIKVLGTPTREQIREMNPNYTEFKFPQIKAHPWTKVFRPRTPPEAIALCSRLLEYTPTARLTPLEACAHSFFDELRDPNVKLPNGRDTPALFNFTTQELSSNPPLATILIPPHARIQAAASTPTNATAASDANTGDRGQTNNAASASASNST
Cell division cycle 7-related protein kinase, sequence (O00311 whole entry): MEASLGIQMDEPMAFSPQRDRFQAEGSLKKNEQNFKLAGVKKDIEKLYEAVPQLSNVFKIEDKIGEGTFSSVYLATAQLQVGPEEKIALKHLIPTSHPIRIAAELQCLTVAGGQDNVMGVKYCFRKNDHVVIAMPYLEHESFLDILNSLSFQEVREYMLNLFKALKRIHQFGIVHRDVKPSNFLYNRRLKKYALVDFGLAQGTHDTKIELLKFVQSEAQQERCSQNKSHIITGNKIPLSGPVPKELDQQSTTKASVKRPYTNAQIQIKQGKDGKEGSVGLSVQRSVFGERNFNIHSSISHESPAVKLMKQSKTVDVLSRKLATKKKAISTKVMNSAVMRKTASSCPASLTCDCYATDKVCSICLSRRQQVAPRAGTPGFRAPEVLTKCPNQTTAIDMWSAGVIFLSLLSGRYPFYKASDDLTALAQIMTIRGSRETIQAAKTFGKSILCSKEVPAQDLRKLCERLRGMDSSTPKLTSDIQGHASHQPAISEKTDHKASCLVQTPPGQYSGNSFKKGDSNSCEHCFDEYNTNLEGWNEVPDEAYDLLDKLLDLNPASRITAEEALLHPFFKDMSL
Homeodomain-interacting protein kinase 2, sequence (Q9H2X6 whole entry): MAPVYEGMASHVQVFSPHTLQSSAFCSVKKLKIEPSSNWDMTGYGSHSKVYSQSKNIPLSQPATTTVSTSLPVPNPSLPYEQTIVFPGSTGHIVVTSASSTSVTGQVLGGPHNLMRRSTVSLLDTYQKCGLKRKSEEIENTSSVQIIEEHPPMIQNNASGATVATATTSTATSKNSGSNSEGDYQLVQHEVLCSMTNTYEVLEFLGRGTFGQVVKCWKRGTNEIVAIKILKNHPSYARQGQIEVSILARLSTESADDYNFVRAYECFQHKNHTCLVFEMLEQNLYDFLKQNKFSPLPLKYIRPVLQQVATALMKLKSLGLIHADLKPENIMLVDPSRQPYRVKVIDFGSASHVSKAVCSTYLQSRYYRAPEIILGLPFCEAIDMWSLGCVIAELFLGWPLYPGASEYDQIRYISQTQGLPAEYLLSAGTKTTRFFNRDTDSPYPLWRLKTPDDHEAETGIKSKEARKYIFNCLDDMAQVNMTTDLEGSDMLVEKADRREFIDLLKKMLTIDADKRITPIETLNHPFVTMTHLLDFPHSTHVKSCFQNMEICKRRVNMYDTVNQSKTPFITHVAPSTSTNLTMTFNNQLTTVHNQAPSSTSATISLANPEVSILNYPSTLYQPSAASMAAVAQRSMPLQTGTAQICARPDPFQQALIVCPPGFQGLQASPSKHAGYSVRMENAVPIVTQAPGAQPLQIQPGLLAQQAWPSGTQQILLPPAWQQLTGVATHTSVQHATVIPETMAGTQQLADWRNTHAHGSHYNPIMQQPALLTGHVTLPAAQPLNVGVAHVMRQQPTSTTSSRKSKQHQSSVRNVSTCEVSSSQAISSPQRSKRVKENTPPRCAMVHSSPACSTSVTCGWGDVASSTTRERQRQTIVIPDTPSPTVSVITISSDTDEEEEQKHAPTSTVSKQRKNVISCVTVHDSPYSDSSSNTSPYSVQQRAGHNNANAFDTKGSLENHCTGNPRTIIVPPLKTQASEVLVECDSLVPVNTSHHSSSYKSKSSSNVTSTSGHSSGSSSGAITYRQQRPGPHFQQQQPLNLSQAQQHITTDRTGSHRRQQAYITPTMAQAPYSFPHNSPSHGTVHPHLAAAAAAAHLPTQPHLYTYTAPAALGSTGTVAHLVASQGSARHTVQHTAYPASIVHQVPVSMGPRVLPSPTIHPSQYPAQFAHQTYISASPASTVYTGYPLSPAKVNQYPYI
Beta Lactamase, sequence (Q932Y6 whole entry, the tested form may be a part): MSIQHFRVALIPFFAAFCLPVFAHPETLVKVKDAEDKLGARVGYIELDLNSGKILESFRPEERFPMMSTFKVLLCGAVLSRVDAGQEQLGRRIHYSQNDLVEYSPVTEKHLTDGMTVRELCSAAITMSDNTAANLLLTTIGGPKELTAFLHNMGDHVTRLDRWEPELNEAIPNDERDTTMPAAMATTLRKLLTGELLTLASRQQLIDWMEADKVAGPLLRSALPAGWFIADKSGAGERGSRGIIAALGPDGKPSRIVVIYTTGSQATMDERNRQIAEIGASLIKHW

Structure (SMILES): CCOc1ccccc1NC(=O)CCS(=O)(=O)c1ccc2c(c1)CCN2C(C)=O
- EC50 [1]: > 100 µM (inactive)

Structure (SMILES): COCCCNCC1C(Oc2ccc(Cl)cc2)C(=O)N1c1ccccc1C (stereo unspecified)
- AC50 [2]: 28.2 µM (active)

Structure (SMILES): Cc1c(/C=C/C(=O)c2cccs2)cnn1C
- IC50 (Orexin receptor type 2 [3]): > 50 µM (inactive)
- IC50 [4]: > 49.8 µM (inactive)
- IC50 [5]: 3.97 µM (active)
- IC50 (CHO-K1): 35 µM (inactive)
- IC50 (Orexin receptor type 2 [6]): > 88.8 µM (inactive)
- IC50 [7]: > 49.8 µM (inactive)

Structure (SMILES): Nc1nc2ccccc2n1C(=O)c1ccccc1
- AC50 (HEK293): 5.38 µM (active)
- AC50 [2]: 108 µM (active)

Structure (SMILES): CCN(CC)c1ccc(C=NNc2ccc([N+](=O)[O-])cn2)cc1
- EC50 [8]: 70.2 µM (inactive)
- IC50 (Beta Lactamase): 4.5 µM (active)
- IC50 (CHO): 24.3 µM (inactive)
- EC50 [9]: > 99 µM (inactive)

Structure (SMILES): COc1ccc(Oc2c(Cl)cnn(Cc3cccc4ccccc34)c2=O)c(F)c1F
- IC50 [10]: 292 nM (active)
- IC50 [11]: 2.05 µM (active)

Structure (SMILES): CCOC(=O)C(C#N)c1c(Cl)c(Br)nn(Cc2cccc3ccccc23)c1=O (stereo unspecified)
- IC50 [10]: 1450 nM (active)
- IC50 [11]: 3.33 µM (active)

Structure (SMILES): O=C(CNC(=O)c1ccc2c(c1)OCCO2)N/N=C/c1ccc(Cl)cc1
- AC50 [12]: 101 µM (active)

Structure (SMILES): Cc1n[nH]c2ccc(-c3cncc(OCCN(C)S(C)(=O)=O)c3)cc12
- Ki [13]: 398 nM (active)
- Ki [14]: 631 nM (active)
- Ki [15]: 12.6 nM (active)
- Ki [16]: 5.01 µM (active)
- Ki [17]: 3.16 µM (active)
- Ki [18]: > 3.16 µM (inactive)
- Ki [19]: 126 nM (active)

Structure (SMILES): COC(=O)CC/C(C)=N\Nc1ccc([N+](=O)[O-])cc1[N+](=O)[O-]
- IC50 [20]: 155 µM (inactive)

Structure (SMILES): Cn1cc(C=C2C(=O)Nc3cccnc32)c2ccccc21 [GW441756X]
- Ki [21]: > 7.94 µM (inactive)
- Ki [22]: 501 nM (active)
- Ki [23]: 501 nM (active)

Structure (SMILES): NC(=O)c1cnccn1 [PYRAZINAMIDE]
- CC50 [24]: > 100 µM (active)
